According to patent EP0658565A1, “Oral products” (UNILEVER PLC, priority 1993, dated 1995):

Assays:
plaque bacteria = assay: in vitro anti-plaque test involving saliva reinoculation; format: cell-based; details: 20 minutes on plaque grown on enamel discs
S.mutans = details: pH = 7; acid production by S.mutans

Molecule	Relative Anti-Plaque Activity (% bacteria killed vs. control growth) (plaque bacteria; Sn^II conc. 1188 ppm) [%]	Relative Anti-Plaque Activity (% bacteria killed vs. control growth) (plaque bacteria; Sn^II conc. 3594 ppm) [%]	Relative Anti-Plaque Activity (% bacteria killed vs. control growth) (plaque bacteria; Sn^II conc. 6000 ppm) [%]	Concentration of Sn²⁺ in mmole to reach 100 % acid inhibition (S.mutans) [mmol]	Relative Anti-Plaque Activity (% bacteria killed vs. control growth) (plaque bacteria; Sn^II conc. 2406 ppm) [%]
O=P([O-])([O-])O[C@H]1O[C@H](CO)[C@@H](O)[C@H](O)[C@H]1O.[Sn+2] [Sn G-1-P, stannous glucose-1-phosphate]	32	96	98	0.2	–
O=P([O-])([O-])OP(=O)([O-])[O-].[Sn+2].[Sn+2] [Sn₂P₂O₇, stannous pyrophosphate, reference compound]	–	–	76	1.02	–
stannous glucose-6-phosphate [Sn G-6-P]	–	75	88	0.25	22
